US9551711B2, “Compositions and methods for detecting nitration of PKG-1α and methods of use thereof” (Augusta University Research Institute, Inc., priority 2013, dated 2017)
Residue numbers refer to the chain shown, from its start.

Experiments:
3-NT-Y247-PKG-1α = 3-NT-Y247-PKG-1α immunoblot in transfected PASMC; format: cell-based, lamb; conditions: SIN-1 500 μM, 30 min
PKG-1α [1] = biological target: T1, PKG-1α (Homo sapiens, UniProt Q13976, Y247F); experiment: PKG activity in transfected HEK-293T cells; format: cell-based; design: made in house; host or cells: HEK-293T; conditions: HEK-293T expressing Y247F-PKG-1α; SIN-1 500 μM, 30 min
T1 sequence (Q13976 2-671 Y247F): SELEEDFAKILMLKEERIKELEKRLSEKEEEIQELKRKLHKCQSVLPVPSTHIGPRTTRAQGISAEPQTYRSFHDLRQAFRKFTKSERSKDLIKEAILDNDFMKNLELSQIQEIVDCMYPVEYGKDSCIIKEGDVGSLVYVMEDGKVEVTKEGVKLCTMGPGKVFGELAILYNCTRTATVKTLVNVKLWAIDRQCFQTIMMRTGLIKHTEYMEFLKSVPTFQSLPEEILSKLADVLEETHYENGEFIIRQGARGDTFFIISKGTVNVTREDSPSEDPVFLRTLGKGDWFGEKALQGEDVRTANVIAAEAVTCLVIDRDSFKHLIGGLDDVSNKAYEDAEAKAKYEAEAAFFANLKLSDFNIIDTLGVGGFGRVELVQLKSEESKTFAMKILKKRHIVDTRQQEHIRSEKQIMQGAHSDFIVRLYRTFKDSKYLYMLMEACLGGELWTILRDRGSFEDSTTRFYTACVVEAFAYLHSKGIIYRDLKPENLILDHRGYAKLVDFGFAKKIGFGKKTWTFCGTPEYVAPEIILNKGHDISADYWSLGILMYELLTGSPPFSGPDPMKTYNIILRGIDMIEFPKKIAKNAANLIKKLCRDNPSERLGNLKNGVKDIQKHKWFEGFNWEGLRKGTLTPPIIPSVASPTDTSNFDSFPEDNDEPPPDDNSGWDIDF
Procedure: To determine the role of tyrosine 247 and tyrosine 425 in mediating the nitration dependent inhibition of PKG-1α kinase activity, Y247F- and Y425F-PKG-1α mutants were generated and expressed in HEK-293T cells. HEK-293T cells were transiently transfected with expression plasmids containing WT-, Y247F-, or Y425F-PKG-1α for 48 h. […] Protein extracts were immunoprecipitated using an antibody raised against PKG-1α and the level of nitrated PKG-1α determined by probing the membranes with an antiserum raised against 3-NT. The blots were then stripped and re-probed for PKG-1α to normalize for the efficiency of the immunoprecipitation.
Total PKG activity was determined using a non-radioactive immunoassay in cell lysates, according to the manufacturer's directions. […]
(§1) After incubation for 30 min at 30° C. to allow the phosphorylation of the bound substrate, an HRP conjugated anti-phosphothreonine specific antibody was added to convert a chromogenic substrate to a colorimetric substrate that was subsequently read spectrophotometrically at 450 nm. The change in absorbance reflected the relative activity of PKG in the sample. […] The kinetic constants were determined using nonlinear regression (curve fit) analysis (GraphPad Prism Software Inc.).

PKG-1α [2] = biological target: T2, PKG-1α (Homo sapiens, UniProt Q13976); experiment: PKG activity in transfected PASMC; format: cell-based, lamb; design: an expression plasmid containing a full length WT-PKG-1α cDNA; expressed in transfected cells; host or cells: primary pulmonary artery smooth muscle cells (PASMC) from 4-week old lambs; conditions: PASMC transfected with WT-PKG-1α; SIN-1 500 μM, 48 h
T2 sequence (Q13976 2-671): T1 sequence (Q13976 2-671 Y247F) with F246Y
Procedure: (§2) Therefore, the effect of these events were investigated in PASMC transiently transfected with expression plasmids containing WT- and Y247F-PKG-1α. The effect of nitration on pulmonary arterial smooth muscle cell (PASMC) growth and metabolism was determined. PASMC were transiently transfected with expression plasmids containing WT-PKG-1α, Y247F-PKG-1α or pDEST40 (as a control) for 20 h. Cells were then exposed or not to SIN-1 (500 μM, 48 h) and the effect on PKG protein levels (FIG. 2A) and activity determined (FIG. 2B).
(§3) Total PKG activity was determined using a non-radioactive immunoassay in cell lysates, according to the manufacturer's directions. Briefly, protein samples were diluted in kinase reaction buffer containing Mg^2+ and ATP (125 μM) in the presence or absence of 8-Br cGMP (10 μM) and incubated in a 96 well plate pre-coated with a PKG substrate containing threonine residues phosphorylated by PKG.
as §1

PKG-1α [3] = biological target: T2, PKG-1α; experiment: PKG catalytic activity, Michaelis-Menten kinetics for cGMP; format: biochemical; design: an expression plasmid containing a full length WT-PKG-1α cDNA; made in house; host or cells: HEK-293T; the results paragraph b304 says PASMC
Procedure: as §3
as §1, with “sample. The results were reported as pmols of phosphate incorporated into the GST-G substrate fusion protein by active PKG in the sample in the presence or absence of cGMP (10 μM) per minute at 30° C. per μg of protein (pmol/min/μg).” for “sample.”
To determine the Michaelis-Menten constant (Km) for cGMP, the kinase assay was performed, as mentioned above; however, the cGMP concentration was titrated from 0-10 μM, while the ATP concentration remained constant at 125 μM.

PKG-1α [4] = experiment: PKG-1α protein levels in transfected PASMC (Western blot); format: cell-based, lamb; conditions: SIN-1 500 μM, 48 h
Procedure: as §2

For “3-morpholinosydnonimine N-ethylcarbamide [SIN-1]”, the “PKG-1α nitration (3-NT-Y247-PKG-1α levels)” value (3-NT-Y247-PKG-1α; PASMC transfected with WT-PKG-1α) was “significantly increased”, the “nitration levels of 3-NT-Y247-PKG-1α” value (3-NT-Y247-PKG-1α; PASMC, second construct of FIG. 4A) was “no significant increases” and the “cGMP dependent PKG activity” value (PKG-1α [1]) was “unaffected”. The “cGMP dependent increase in PKG activity” value (PKG-1α [2]) was “attenuated”, the “Vmax of the reaction” value (PKG-1α [3]; WT PKG-1α after SIN-1 challenge, ATP 125 μM, cGMP 0-10 μM) was 0.28 pmol/min/µg and the Km (PKG-1α [3]; WT-PKG-1α upon SIN-1 treatment, read-out: Michaelis-Menten constant (Km) for cGMP) was 8.91 nM. For the same substance, the PKG-1α protein levels (PKG-1α [4]) was “no effect”.
